From PMC10257043 (Molecular Plant Pathology, 2023)

Tests used:
Uvi2 = target: T1, Uvi2 (Ustilago hordei, UniProt I2G262); assay: microscale thermophoresis; assay type: binding; conditions: MST as for Cpl1
T1 sequence (I2G262 22-243): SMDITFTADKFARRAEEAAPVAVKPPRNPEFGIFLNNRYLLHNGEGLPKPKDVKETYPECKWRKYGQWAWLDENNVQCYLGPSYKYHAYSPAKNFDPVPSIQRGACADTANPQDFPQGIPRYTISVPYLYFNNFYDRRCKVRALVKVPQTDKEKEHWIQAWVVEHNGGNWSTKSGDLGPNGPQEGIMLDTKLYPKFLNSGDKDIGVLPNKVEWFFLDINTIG

SEC-MALS = target: the molecule itself; assay: SEC-MALS

Question: Which Kd (Uvi2) does the source give for `CC(=O)N[C@H]1[C@H](O[C@H]2[C@H](O)[C@@H](NC(C)=O)C(O)O[C@@H]2CO)O[C@H](CO)[C@@H](O)[C@@H]1O` (some centres unmarked) [chitobiose] here?
Answer: 15 ± 3.72 µM

B1: Uvi2 (UHOR_02700 gene product), the Cpl1 homologue from Ustilago hordei, recombinant (natural protein)
chain: SMDITFTADKFARRAEEAAPVAVKPPRNPEFGIFLNNRYLLHNGEGLPKPKDVKETYPECKWRKYGQWAWLDENNVQCYLGPSYKYHAYSPAKNFDPVPSIQRGACADTANPQDFPQGIPRYTISVPYLYFNNFYDRRCKVRALVKVPQTDKEKEHWIQAWVVEHNGGNWSTKSGDLGPNGPQEGIMLDTKLYPKFLNSGDKDIGVLPNKVEWFFLDINTIG
Question: Which “stoichiometry N” value (SEC-MALS) does the source give for B1 here?
Answer: 2
